How the values were obtained:
A549 (P450R+ve) = assay: Cell proliferation (sulphorhodamine B) IC50, P450R-transfected A549 human lung cells, anoxia vs 20% O2; format: cell-based; settings: for A549 (P450R+ve) 20% O2/anoxia IC50 Ratio: 4 h, sensitivity ratio for hypoxia
WiDr (NTR+ve) = assay: Cell proliferation (sulphorhodamine B) IC50, NTR-transfected WiDr human colon cells; format: cell-based; settings: for WiDr WT:NTR IC50 Ratio: 4 h, sensitivity ratio for NTR expression; for IC50: 4 h drug exposure, growth 5 further days
[1] = tested on: SiHa human tumour xenografts; assay: SiHa xenograft excision / clonogenic assay, with or without 15 Gy radiation; format: in vivo; settings: for Log kill, cmpd after radiation: single i.p. dose 5 min after 15 Gy, relative to radiation only; for Log kill, cmpd only, Mean ± sem: single i.p. dose, no radiation, relative to vehicle controls, excision 18 h
[2] = A549, 4 h drug exposure under 0% oxygen
[3] = 4 h drug exposure under 0% oxygen

Compound	A549 (P450R+ve) 20% O2/anoxia IC50 Ratio (A549 (P450R+ve))	IC50 (A549 (P450R+ve); [2]) [µM]	WiDr WT:NTR IC50 Ratio (WiDr (NTR+ve))	IC50 (WiDr (NTR+ve); WiDr) [µM]	IC50 (A549 (P450R+ve); [3]) [µM]	IC50 (WiDr (NTR+ve)) [µM]	Log kill, cmpd after radiation ([1]; 20% of MTD)	Log kill, cmpd after radiation ([1]; 75% of MTD)	Log kill, cmpd only, Mean ± sem ([1]; 75% of MTD)
O=C(NCCCCO)c1c([N+](=O)[O-])ccc(N(CCBr)CCBr)c1[N+](=O)[O-] [IIc-9, 3-[Bis(2-Bromoethyl)Amino]-N-(4-Hydroxybutyl)-2,6-Dinitrobenzamide]	21	7.3	6	31					
O=C(NCCCCCCO)c1cc(N(CCBr)CCBr)c([N+](=O)[O-])cc1[N+](=O)[O-] [IIa-11, N-(6-Hydroxyhexyl)-5-[Bis(2-Bromoethyl)Amino]-2,4-Dinitrobenzamide]			9	11					
O=C(NCCO)c1cc(N(CCI)CCI)c([N+](=O)[O-])cc1[N+](=O)[O-] [IIa-14, 5-[Bis(2-Iodoethyl)Amino]-N-(2-Hydroxyethyl)-2,4-Dinitrobenzamide]	4.5	13	49	2.9					
O=C(NCCCCCO)c1cc(N(CCBr)CCBr)c([N+](=O)[O-])cc1[N+](=O)[O-] [IIa-10, N-(5-Hydroxypentyl)-5-[Bis(2-Bromoethyl)Amino]-2,4-Dinitrobenzamide]			22	10					
O=C(NCCCCCO)c1cc([N+](=O)[O-])cc([N+](=O)[O-])c1N(CCCl)CCCl [IIb-5, 2-[Bis(2-Chloroethyl)Amino]-N-(5-Hydroxypentyl)-3,5-Dinitrobenzamide]			19	13					
O=C(NCCCCCO)c1cc([N+](=O)[O-])cc([N+](=O)[O-])c1N(CCBr)CCBr [IIb-10, 2-[Bis(2-Bromoethyl)Amino]-N-(5-Hydroxypentyl)-3,5-Dinitrobenzamide]	11	2.3	2	0.9					
2-((2-Bromoethyl)-3-{[(4-Hydroxybutyl)Amino]Carbonyl}-2,4-Dinitroanilino)Ethyl Methanesulfonate [IIc-14]	57		16		7.1	20			
O=C(NCCCO)c1c([N+](=O)[O-])ccc(N(CCBr)CCBr)c1[N+](=O)[O-] [IIc-8, 3-[Bis(2-Bromoethyl)Amino]-N-(3-Hydroxypropyl)-2,6-Dinitrobenzamide]	24	6.6	70	5					
O=C(NCCCCO)c1cc([N+](=O)[O-])cc([N+](=O)[O-])c1N(CCBr)CCBr [IIb-9, 2-[Bis(2-Bromoethyl)Amino]-N-(4-Hydroxybutyl)-3,5-Dinitrobenzamide]	20	1.4	5	0.9					
O=C(NCCO)c1cc(N(CCBr)CCBr)c([N+](=O)[O-])cc1[N+](=O)[O-] [IIa-7, N-(2-Hydroxyethyl)-5-[Bis(2-Bromoethyl)Amino]-2,4-Dinitrobenzamide]	49	6.7	99	1.5					
2-((2-Bromoethyl)-3-{[(3-Hydroxypropyl)Amino]Carbonyl}-2,4-Dinitroanilino)Ethyl Methanesulfonate [IIc-13]	134		95		4.5	4.3			
O=C(NCCCCO)c1cc([N+](=O)[O-])cc([N+](=O)[O-])c1N(CCCl)CCCl [IIb-4, 2-[Bis(2-Chloroethyl)Amino]-N-(4-Hydroxybutyl)-3,5-Dinitrobenzamide]			18	14					
O=C(NCCCCCCO)c1cc([N+](=O)[O-])cc([N+](=O)[O-])c1N(CCBr)CCBr [IIb-11, 2-[Bis(2-Bromoethyl)Amino]-N-(6-Hydroxyhexyl)-3,5-Dinitrobenzamide]	4.5	6.6	2	1					
O=C(NCCO)c1c([N+](=O)[O-])ccc(N(CCBr)CCBr)c1[N+](=O)[O-] [IIc-7, 3-[Bis(2-Bromoethyl)Amino]-N-(2-Hydroxyethyl)-2,6-Dinitrobenzamide]	40	3.9	46	10					
2-((2-Bromoethyl)-2-{[(2-Hydroxypropyl)Amino]Carbonyl}-4,6-Dinitroanilino)Ethyl Methanesulfonate [IIb-13]	138		27		0.15	0.3			
2-[Bis(2-Chloroethyl)Amino]-N-(6-Hydroxybexyl)-3,5-Dinitrobenzamide [IIb-6]			5			27			
2-((2-Bromoethyl)-2-{[(2-Hydroxyethyl)Amino]Carbonyl}-4,6-Dinitroanilino)Ethyl Methanesulfonate [IIb-12]	133		48		0.28	0.4			
2-((2-Bromoethyl)-3-{[(2-Hydroxyethyl)Amino]carbonyl}-2,4-Dinitroanilino)Ethyl Methanesulfonate [IIc-12]	173		84		2.6	5			
2-[(2-Bromoethyl)-2,4-Dinitro-3-[[[3-(Phosphonooxy)Propyl]Amino]-Carbonyl]Anilino]Ethyl Methanesulfonate [Ic-13P]							1.60 ± 0.20	≧3.23 ± 0.08	2.36 ± 0.28
2-((2-Iodoethyl)-2-{[(2-Hydroxyethyl)Amino]Carbonyl}-4,6-Dinitroanilino)Ethyl Methanesulfonate [IIb-15]	118		31		0.28	0.3			
2-[(2-Chloroethyl)-2,4-Dinitro-3-[[[3-(Phosphonooxy)Propyl]Amino]-Carbonyl]Anilino]Ethyl Methanesulfonate [Ic-6P]							1.64 ± 0.30	≧2.62 ± 0.17	1.11 ± 0.20
2-[(2-Chloroethyl)-2,4-Dinitro-6-[[[2-(Phosphonooxy)Ethyl]amino]-Carbonyl]Anilino]Ethyl Methanesulfonate [Ib-2mP]							2.56 ± 0.37	≧3.47 ± 0.17	2.47 ± 0.08
2-[(2-Iodoethyl)-2,4-Dinitro-3-[[[3-(Phosphonooxy)Propyl]Amino]-Carbonyl]Anilino]Ethyl Methanesulfonate [Ic-15P]							1.81 ± 0.23	2.80 ± 0.40	2.27 ± 0.17
2 [(2-Bromoethyl)-5-[[(3-Hydroxypropyl)Amino]Carbonyl]-2,4-Dinitroanilino]Ethyl Methanesulfonate [IIa-13]	18		90		32	5			
O=C(NCCCO)c1cc(N(CCBr)CCBr)c([N+](=O)[O-])cc1[N+](=O)[O-] [IIa-8, N-(3-Hydroxypropyl)-5-[Bis(2-Bromoethyl)Amino]-2,4-Dinitrobenzamide]	6.6	23	224	1.6					
2-[(2-Bromoethyl)-2,4-Dinitro-3-[[[2-(Phosphonooxy)Ethyl]Amino]-Carbonyl]Anilino]Ethyl Methanesulfonate [Ic-12P]							2.03 ± 0.25	≧2.96 ± 0.31	1.04 ± 0.29
O=C(NCCCO)c1cc(N(CCCl)CCCl)c([N+](=O)[O-])cc1[N+](=O)[O-] [IIa-3, N-(3-Hydroxypropyl)-5-[bis(2-Chloroethyl)Amino]-2,4-Dinitrobenzamide]	23	54	36	47					
2-[(2-Bromoethyl)-2,4-Dinitro-6-[[[2-(Phosphonooxy)Ethyl]Amino]-Carbonyl]Anilino]Ethyl Methanesulfonate [Ib-12P]							1.65 ± 0.19	≧3.38 ± 0.28	1.32 ± 0.30

— patent publication US7629332B2, “Nitrophenyl mustard and nitrophenylaziridine alcohols and their corresponding phosphates and their use as targeted cytotoxic agents” (Auckland Uniservices Limited, priority 2003, dated 2009)
